Data reported in US11655235B2, “Pyrrolidine and piperidine compounds” (YUHAN CORPORATION, priority 2019, dated 2023).

Assays:
Type in all cases: biochemical
Recombinant human FAP = molecular target: T1, Recombinant human FAP (Homo sapiens, UniProt Q12884); assay: FAP inhibition, fluorogenic substrate Z-Gly-Pro-AMC; details: 25° C., Z-Gly-Pro-AMC substrate
T1 construct: purchased R&D systems
T1 sequence (Q12884 1-760): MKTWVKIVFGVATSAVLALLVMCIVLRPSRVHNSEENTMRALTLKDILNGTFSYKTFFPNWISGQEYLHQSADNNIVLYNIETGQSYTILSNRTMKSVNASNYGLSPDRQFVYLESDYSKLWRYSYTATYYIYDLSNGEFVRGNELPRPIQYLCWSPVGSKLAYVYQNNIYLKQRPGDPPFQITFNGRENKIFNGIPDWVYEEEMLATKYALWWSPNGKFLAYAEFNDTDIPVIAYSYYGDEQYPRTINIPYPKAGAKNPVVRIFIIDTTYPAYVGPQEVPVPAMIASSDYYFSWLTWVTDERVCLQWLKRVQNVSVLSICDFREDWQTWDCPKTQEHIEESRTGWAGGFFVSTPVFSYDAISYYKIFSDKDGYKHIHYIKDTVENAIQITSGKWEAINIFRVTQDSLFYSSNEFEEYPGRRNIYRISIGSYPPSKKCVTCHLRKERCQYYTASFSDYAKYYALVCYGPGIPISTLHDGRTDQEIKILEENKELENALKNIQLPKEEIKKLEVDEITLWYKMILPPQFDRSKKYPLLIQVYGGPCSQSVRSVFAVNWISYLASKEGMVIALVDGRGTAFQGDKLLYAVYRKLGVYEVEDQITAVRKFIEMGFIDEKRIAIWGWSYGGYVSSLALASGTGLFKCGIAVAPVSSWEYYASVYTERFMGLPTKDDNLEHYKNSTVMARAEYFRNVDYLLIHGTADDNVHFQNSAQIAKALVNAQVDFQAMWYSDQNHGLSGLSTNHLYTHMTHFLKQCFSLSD
Summary of the method: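 Recombinant human FAP, 10 ng per reaction, in 50 mM Tris pH 7.5 with 1 M NaCl and 1 mg/ml BSA at 25° C; substrate Z-Gly-Pro-AMC, ≤0.1% DMSO. AMC fluorescence read at ex 380/em 460 nm; % signal-rate decrease vs no-inhibitor control, 8-point curves fitted to a four-parameter logistic for IC50.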

recombinant human DPP7 = molecular target: T2, recombinant human DPP7 (Homo sapiens, UniProt Q9UHL4); assay: DPP7 inhibition, fluorogenic substrate Lys-Pro-AMC
T2 construct: purchased R&D Systems
Summary of the method: (§1)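 Enzyme per reaction: 50 ng DPP9, 20 ng DPP8, 10 ng each DPP7 and PREP. Compounds were serially diluted (8 points, up to 0.5% DMSO) and incubated at 25 °C.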

recombinant human DPP8 = molecular target: T3, recombinant human DPP8 (Homo sapiens, UniProt Q6V1X1); assay: DPP8 inhibition, fluorogenic substrate Z-Ala-Pro-AMC; details: 25° C., Z-Ala-Pro-AMC substrate
T3 construct: purchased PBS Bioscience
T3 sequence (Q6V1X1 whole entry): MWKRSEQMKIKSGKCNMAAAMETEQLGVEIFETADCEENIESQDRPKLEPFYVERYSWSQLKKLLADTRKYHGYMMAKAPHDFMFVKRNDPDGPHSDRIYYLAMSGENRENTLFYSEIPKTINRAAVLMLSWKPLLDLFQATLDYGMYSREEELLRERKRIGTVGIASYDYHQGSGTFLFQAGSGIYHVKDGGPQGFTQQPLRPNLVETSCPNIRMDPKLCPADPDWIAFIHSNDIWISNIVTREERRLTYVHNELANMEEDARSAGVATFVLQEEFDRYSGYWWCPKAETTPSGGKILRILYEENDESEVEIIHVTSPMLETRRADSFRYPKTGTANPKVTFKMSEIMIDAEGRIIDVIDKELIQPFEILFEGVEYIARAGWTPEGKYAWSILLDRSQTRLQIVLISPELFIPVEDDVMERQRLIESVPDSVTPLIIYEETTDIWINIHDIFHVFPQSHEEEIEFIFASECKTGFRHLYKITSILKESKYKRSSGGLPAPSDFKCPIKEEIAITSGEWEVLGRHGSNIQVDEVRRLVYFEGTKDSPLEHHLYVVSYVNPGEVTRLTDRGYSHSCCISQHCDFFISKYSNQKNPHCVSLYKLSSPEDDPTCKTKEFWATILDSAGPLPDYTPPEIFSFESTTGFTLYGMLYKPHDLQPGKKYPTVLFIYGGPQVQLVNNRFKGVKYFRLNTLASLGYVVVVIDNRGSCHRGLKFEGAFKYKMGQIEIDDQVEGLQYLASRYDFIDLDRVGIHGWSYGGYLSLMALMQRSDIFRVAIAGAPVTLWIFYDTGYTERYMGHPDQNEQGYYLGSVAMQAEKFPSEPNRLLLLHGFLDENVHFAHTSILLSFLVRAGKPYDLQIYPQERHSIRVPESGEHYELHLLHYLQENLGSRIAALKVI
Summary of the method: as §1

recombinant human DPP9 = molecular target: T4, recombinant human DPP9 (Homo sapiens, UniProt Q86TI2); assay: DPP9 inhibition, fluorogenic substrate H-Gly-Pro-AMC; details: 25° C., H-Gly-Pro-AMC substrate
T4 construct: purchased R&D Systems
T4 sequence (Q86TI2 whole entry): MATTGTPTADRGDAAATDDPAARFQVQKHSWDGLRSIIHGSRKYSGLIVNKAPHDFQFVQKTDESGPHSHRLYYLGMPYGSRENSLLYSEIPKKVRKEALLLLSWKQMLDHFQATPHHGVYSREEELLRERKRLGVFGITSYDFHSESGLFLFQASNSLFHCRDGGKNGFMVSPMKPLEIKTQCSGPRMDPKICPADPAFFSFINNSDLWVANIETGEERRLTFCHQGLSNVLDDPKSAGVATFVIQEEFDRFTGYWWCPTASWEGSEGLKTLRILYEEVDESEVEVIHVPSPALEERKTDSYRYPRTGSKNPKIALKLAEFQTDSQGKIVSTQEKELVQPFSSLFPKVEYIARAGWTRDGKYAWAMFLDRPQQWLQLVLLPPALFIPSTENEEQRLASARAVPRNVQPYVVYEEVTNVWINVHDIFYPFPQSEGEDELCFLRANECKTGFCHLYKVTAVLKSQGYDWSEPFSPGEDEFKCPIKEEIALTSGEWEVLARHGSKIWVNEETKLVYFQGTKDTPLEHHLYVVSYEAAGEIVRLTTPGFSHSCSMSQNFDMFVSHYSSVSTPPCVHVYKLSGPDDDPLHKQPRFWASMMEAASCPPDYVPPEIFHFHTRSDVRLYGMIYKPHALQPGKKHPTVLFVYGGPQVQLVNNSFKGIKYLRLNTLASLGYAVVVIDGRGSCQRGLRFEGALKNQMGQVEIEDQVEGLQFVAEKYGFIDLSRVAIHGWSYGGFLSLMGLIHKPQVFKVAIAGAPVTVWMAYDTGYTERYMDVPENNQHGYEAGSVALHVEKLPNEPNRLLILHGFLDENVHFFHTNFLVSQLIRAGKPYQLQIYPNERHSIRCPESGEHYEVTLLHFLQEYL
Summary of the method: as §1

recombinant human PREP = molecular target: T5, recombinant human PREP (Homo sapiens, UniProt P48147); assay: PREP inhibition, fluorogenic substrate Z-Gly-Pro-AMC; details: Inhibitory Activity (IC50, nM) PREP, 25° C., Z-Gly-Pro-AMC substrate
T5 construct: purchased R&D System
T5 sequence (P48147 1-710): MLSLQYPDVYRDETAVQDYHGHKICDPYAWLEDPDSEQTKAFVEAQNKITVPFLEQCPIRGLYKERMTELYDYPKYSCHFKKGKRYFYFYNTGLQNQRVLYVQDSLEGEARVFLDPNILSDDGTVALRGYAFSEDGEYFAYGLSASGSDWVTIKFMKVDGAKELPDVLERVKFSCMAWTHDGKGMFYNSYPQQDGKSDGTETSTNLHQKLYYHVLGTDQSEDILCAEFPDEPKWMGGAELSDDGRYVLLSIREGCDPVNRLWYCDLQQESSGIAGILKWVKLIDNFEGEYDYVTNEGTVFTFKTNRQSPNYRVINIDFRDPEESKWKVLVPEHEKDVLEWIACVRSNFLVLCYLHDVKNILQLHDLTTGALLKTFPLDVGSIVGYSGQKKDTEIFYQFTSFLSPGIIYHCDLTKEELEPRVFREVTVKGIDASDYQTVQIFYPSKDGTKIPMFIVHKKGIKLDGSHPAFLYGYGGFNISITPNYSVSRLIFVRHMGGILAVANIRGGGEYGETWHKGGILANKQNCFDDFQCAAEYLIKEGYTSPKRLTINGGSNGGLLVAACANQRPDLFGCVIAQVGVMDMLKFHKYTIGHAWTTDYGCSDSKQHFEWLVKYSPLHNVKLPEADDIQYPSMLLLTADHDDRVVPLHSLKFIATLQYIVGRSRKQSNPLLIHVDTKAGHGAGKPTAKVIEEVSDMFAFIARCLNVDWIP
Summary of the method: as §1

DPP4 = DPP4 (Homo sapiens, UniProt P27487); assay: DPP4 inhibition, fluorogenic substrate H-Gly-Pro-AMC; set-up: purchased R&D Systems; details: for IC50: 25° C., H-Gly-Pro-AMC substrate; for inhibition at 1 µM: read-out: hDPP4 inhibition % at 1 μM
Chain of DPP4 (P27487 whole entry): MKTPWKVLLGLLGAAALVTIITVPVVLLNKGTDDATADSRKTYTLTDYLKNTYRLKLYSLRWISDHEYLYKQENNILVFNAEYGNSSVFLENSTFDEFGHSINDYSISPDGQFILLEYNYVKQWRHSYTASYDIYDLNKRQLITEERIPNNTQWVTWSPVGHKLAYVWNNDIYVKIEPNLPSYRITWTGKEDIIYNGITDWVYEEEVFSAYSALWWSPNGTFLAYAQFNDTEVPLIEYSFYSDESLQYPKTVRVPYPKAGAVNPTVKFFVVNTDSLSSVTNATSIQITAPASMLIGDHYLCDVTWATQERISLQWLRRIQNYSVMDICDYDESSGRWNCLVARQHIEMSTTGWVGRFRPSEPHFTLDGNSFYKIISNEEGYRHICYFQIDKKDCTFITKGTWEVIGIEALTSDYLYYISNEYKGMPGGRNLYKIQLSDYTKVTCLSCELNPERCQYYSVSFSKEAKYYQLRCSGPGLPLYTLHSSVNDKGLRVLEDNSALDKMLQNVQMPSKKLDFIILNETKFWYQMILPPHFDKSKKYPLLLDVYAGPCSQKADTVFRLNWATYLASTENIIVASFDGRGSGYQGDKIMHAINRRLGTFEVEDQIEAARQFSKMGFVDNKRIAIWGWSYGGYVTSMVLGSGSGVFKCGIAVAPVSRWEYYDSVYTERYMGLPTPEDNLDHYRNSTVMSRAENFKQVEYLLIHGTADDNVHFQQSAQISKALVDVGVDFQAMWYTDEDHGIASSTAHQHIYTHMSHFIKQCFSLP

| Compound | IC50 (Recombinant human FAP) [µM] | IC50 (recombinant human DPP7) [µM] | IC50 (recombinant human DPP8) [µM] | IC50 (recombinant human DPP9) [µM] | IC50 (recombinant human PREP) [nM] | IC50 (DPP4) [µM] | inhibition at 1 µM (DPP4) [%] |
| --- | --- | --- | --- | --- | --- | --- | --- |
| N#C[C@@H]1CC(F)(F)CN1C(=O)CN1CC[C@H](Nc2cncc3ccoc23)C1 [Example 12, (S)-4,4-difluoro-1-(2-((S)-3-(furo[3,2-c]pyridin-7-ylamino)pyrrolidin-1-yl)acetyl)pyrrolidine-2-carbonitrile] | 0.0005 | < 0.03 | 0.371 | 17.7 | > 100000 | > 1 |  |
| N#C[C@@H]1CC(F)(F)CN1C(=O)CN1CC[C@H](Nc2ccccc2-c2ccccc2)C1 [Example 13, (S)-1-(2-((S)-3-([1,1′-biphenyl]-2-ylamino)pyrrolidin-1-yl)acetyl)-4,4-difluoropyrrolidine-2-carbonitrile] | 0.0246 | 0.243 | 0.163 | 56.5 | > 100000 | > 1 |  |
| N#C[C@@H]1CCCN1C(=O)CN1CC[C@@H](Nc2cnc3ccccc3c2)C1 [Example 17, (S)-1-(2-((R)-3-(quinolin-3-ylamino)pyrrolidin-1-yl)acetyl)pyrrolidine-2-carbonitrile] | 0.00624 | 1.61 | > 10 | > 100 | 6960 | > 1 |  |
| N#C[C@@H]1CCCN1C(=O)CN1CC[C@H](Nc2cncc3ccccc23)C1 [Example 19, (S)-1-(2-((S)-3-(isoquinolin-4-ylamino)pyrrolidin-1-yl)acetyl)pyrrolidine-2-carbonitrile] | 0.00574 | 0.206 | 45.2 | 44 | 11800 | > 1 |  |
| N#C[C@@H]1CCCN1C(=O)CN1CC[C@H](Nc2cccc3sccc23)C1 [Example 20, (S)-1-(2-((S)-3-(benzo[b]thiophen-4-ylamino)pyrrolidin-1-yl)acetyl)pyrrolidine-2-carbonitrile] | 0.00453 | 2.12 | 23.1 | 69.1 | 7230 | > 1 |  |
| N#C[C@@H]1CCCN1C(=O)CN1CC[C@@H](Nc2cncc3ccccc23)C1 [Example 24, (S)-1-(2-((R)-3-(isoquinolin-4-ylamino)pyrrolidin-1-yl)acetyl)pyrrolidine-2-carbonitrile] | 0.00212 | 0.524 | 77.3 | 68 | 5460 | > 1 |  |
| N#C[C@@H]1C[C@H](F)CN1C(=O)CN1CC[C@H](Nc2cncc3ccoc23)C1 [Example 28, (2S,4S)-4-fluoro-1-(2-((S)-3-(furo[3,2-c]pyridin-7-ylamino)pyrrolidin-1-yl)acetyl)pyrrolidin-2-carbonitrile] | 0.00182 | 0.346 | 18.6 | 8.24 | 6600 | 2.63 |  |
| N#C[C@@H]1C[C@H](F)CN1C(=O)CN1CC[C@H](NC(=O)c2coc3cc(F)ccc23)C1 [Example 29, N—((S)-1-(2-((2S,4S)-2-cyano-4-fluoropyrrolidin-1-yl)-2-oxoethyl)pyrrolidin-3-yl)-6-fluorobenzofuran-3-carboxamide] | 0.00622 | 0.728 | 28.7 | 17.5 | 6170 | > 100 |  |
| N#C[C@@H]1CCCN1C(=O)CN1CC[C@H](NC(=O)c2coc3cc(F)ccc23)C1 [Example 44, N—((S)-1-(2-((S)-2-cyanopyrrolidin-1-yl)-2-oxoethyl)pyrrolidin-3-yl)-6-fluorobenzofuran-3-carboxamide] | 0.00507 | 1.72 | 46.2 | > 100 | 12100 |  | 1.4 |

Next, values leading:

| IC50 (Recombinant human FAP) [µM] | IC50 (recombinant human DPP7) [µM] | IC50 (recombinant human DPP8) [µM] | IC50 (recombinant human DPP9) [µM] | IC50 (recombinant human PREP) [nM] | IC50 (DPP4) [µM] | inhibition at 1 µM (DPP4) [%] | Compound |
| --- | --- | --- | --- | --- | --- | --- | --- |
| 0.0187 | 0.127 | 0.676 | 11.1 | > 100000 | > 1 |  | N#C[C@@H]1CC(F)(F)CN1C(=O)CN1CC[C@H](Nc2ccc(-c3ccccc3)cc2)C1 [Example 14, (S)-1-(2-((S)-3-([1,1′-biphenyl]-4-ylamino)pyrrolidin-1-yl)acetyl)-4,4-difluoropyrrolidine-2-carbonitrile] |
| 0.0123 | 0.196 | 0.253 | 48.8 | > 100000 |  | 9.7 | N#C[C@@H]1CC(F)(F)CN1C(=O)CN1CC[C@H](Nc2ccc3ccccc3c2)C1 [Example 15, (S)-4,4-difluoro-1-(2-((S)-3-(naphthalen-2-ylamino)pyrrolidin-1-yl)acetyl)pyrrolidine-2-carbonitrile] |
| 0.0026 | 0.0847 | 0.557 | 13.7 | > 100000 |  | 11 | N#C[C@@H]1CC(F)(F)CN1C(=O)CN1CC[C@H](Nc2cccc(-c3ccccc3)c2)C1 [Example 16, (S)-1-(2-((S)-3-([1,1′-biphenyl]-3-ylamino)pyrrolidin-1-yl)acetyl)-4,4-difluoropyrrolidine-2-carbonitrile] |
| 0.00162 | 1.22 | 20.7 | 27.4 | 12100 |  | 5.4 | N#C[C@@H]1CCCN1C(=O)CN1CC[C@H](Nc2cccc3ncccc23)C1 [Example 27, (S)-1-(2-((S)-3-(quinolin-5-ylamino)pyrrolidin-1-yl)acetyl)pyrrolidine-2-carbonitrile] |
| 0.0327 | 3.55 | 21.8 | > 100 | 6450 | > 1 |  | N#C[C@@H]1CCCN1C(=O)CN1CC[C@H](NC(=O)c2cc3ccccc3s2)C1 [Example 36, N—((S)-1-(2-((S)-2-cyanopyrrolidin-1-yl)-2-oxoethyl)pyrrolidin-3-yl)benzo[b]thiophene-2-carboxamide] |
| 0.0118 | 5.17 | 72.8 | > 100 | 8260 | > 1 |  | N#C[C@@H]1CCCN1C(=O)CN1CC[C@H](NC(=O)c2coc3ccccc23)C1 [Example 37, N—((S)-1-(2-((S)-2-cyanopyrrolidin-1-yl)-2-oxoethyl)pyrrolidin-3-yl)benzofuran-3-carboxamide] |
| 0.0037 | 4.13 | 62.1 | > 100 | 3190 | > 1 |  | N#C[C@@H]1CCCN1C(=O)CN1CC[C@H](NC(=O)c2csc3ccccc23)C1 [Example 41, N—((S)-1-(2-((S)-2-cyanopyrrolidin-1-yl)-2-oxoethyl)pyrrolidin-3-yl)benzo[b]thiophene-3-carboxamide] |
| 0.00994 | 3.37 | 44.7 | > 100 | 8350 |  | 0.2 | N#C[C@@H]1CCCN1C(=O)CN1CC[C@H](NC(=O)c2coc3ccc(F)cc23)C1 [Example 43, N—((S)-1-(2-((S)-2-cyanopyrrolidin-1-yl)-2-oxoethyl)pyrrolidin-3-yl)-5-fluorobenzofuran-3-carboxamide] |
